Entries after “also recorded” stand apart in the source; their conditions may differ. Counter-ions that a name gives are not always drawn. Like-named read-outs stand apart in the source and are kept apart here.
Tests used:
[1] = tested on: variety of cell types; conditions: cited from earlier work
[2] = cited from earlier work
[3] = biological target: sodium/D-glucose cotransporter; conditions: cited from earlier work
[4] = biological target: MCT2 (Homo sapiens, UniProt O60669); conditions: cited from earlier work
Chain of MCT2 (O60669 whole entry, species assumed): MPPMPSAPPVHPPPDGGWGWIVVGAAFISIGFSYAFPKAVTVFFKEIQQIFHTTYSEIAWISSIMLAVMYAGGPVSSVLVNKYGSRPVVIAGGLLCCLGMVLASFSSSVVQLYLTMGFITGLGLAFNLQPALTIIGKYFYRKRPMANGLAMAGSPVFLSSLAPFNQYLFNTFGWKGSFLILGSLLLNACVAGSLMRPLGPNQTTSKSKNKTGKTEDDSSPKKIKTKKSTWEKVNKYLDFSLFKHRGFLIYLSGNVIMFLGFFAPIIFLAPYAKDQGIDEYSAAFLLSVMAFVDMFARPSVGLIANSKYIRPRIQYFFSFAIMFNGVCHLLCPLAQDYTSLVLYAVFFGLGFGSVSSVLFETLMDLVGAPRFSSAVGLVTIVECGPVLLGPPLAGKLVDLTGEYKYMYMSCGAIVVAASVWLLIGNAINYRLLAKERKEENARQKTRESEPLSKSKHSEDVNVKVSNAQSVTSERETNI

[5] = biological target: MCT1 (Homo sapiens, UniProt P53985); conditions: cited from earlier work
Chain of MCT1 (P53985 whole entry): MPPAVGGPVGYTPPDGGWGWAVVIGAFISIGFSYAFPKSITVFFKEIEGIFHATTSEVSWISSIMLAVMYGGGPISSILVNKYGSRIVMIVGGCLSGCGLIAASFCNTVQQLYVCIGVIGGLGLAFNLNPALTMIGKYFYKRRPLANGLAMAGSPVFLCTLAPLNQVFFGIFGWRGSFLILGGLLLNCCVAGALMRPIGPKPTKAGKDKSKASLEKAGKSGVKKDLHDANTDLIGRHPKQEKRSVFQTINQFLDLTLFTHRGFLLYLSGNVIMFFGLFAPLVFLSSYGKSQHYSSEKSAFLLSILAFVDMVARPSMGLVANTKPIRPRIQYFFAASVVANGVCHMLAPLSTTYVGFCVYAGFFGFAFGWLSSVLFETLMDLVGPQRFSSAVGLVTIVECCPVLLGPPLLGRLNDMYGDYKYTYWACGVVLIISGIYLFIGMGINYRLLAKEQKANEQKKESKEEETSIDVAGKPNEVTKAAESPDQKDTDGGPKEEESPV

[6] = tested on: anandamide uptake; conditions: cited from earlier work
[7] = tested on: anandamide levels; conditions: rat cerebellum; cited from earlier work
[8] = biological target: PAR2 (Homo sapiens, UniProt P55085); conditions: cited from earlier work
Chain of PAR2 (P55085 26-397): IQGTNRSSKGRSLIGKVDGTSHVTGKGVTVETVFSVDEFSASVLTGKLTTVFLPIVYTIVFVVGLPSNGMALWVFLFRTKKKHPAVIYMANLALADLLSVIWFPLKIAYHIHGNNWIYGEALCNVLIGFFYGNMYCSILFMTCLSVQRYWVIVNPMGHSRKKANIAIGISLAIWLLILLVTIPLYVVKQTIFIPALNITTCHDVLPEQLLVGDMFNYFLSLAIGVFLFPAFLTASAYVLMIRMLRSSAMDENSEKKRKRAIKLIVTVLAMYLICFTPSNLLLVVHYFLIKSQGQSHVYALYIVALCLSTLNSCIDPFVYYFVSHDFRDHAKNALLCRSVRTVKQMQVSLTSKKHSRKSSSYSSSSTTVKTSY

[9] = tested on: platelet aggregation; conditions: cited from earlier work
[10] = biological target: proteinase-activated receptor 1 (PAR1) (Homo sapiens, UniProt P25116); conditions: read-out: IC50, blocking binding of haTRAP; cited from earlier work
Chain of proteinase-activated receptor 1 (PAR1) (P25116 22-425, species assumed): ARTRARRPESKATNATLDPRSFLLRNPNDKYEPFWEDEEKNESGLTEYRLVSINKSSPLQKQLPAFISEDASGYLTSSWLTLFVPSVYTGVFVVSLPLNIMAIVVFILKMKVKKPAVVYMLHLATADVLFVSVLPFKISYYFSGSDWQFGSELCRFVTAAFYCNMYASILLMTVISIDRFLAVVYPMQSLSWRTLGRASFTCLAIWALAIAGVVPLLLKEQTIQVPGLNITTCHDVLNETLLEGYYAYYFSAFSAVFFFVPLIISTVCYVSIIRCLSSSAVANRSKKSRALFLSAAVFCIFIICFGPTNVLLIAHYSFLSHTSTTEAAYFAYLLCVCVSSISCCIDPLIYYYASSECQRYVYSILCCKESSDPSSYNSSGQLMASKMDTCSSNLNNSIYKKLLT

[11] = biological target: PAR4 (Homo sapiens, UniProt Q96RI0); conditions: cited from earlier work
Chain of PAR4 (Q96RI0 18-385): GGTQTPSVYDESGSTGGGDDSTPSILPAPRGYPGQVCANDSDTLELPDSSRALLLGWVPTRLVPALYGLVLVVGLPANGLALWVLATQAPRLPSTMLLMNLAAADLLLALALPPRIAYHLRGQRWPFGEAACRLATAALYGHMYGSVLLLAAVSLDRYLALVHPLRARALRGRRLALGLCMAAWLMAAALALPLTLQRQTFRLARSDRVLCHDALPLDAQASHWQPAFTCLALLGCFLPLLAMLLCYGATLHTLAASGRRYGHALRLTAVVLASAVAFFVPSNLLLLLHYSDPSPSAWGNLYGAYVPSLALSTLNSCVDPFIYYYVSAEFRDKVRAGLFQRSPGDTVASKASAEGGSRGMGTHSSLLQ

[12] = biological target: Glut1 (Homo sapiens, UniProt P11166); conditions: cited from earlier work
Chain of Glut1 (P11166 whole entry, species assumed): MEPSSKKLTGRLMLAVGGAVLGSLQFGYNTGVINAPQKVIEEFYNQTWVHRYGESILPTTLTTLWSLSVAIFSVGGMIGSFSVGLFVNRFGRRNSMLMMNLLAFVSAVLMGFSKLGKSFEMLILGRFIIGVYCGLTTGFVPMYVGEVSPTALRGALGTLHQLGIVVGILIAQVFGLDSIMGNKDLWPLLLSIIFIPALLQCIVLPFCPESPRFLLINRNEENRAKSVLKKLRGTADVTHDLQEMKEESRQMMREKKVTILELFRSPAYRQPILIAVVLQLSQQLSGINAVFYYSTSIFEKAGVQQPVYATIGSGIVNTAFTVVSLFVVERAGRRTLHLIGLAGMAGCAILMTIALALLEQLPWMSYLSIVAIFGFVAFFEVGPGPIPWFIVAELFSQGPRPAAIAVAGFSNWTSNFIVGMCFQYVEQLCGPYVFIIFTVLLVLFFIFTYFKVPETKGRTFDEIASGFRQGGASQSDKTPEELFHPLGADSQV

[13] = tested on: carcinoma cell lines; experiment: Correlation of EMT signatures with CTD^2 compound AUCs; conditions: CTD^2 drug testing cohort
Excerpt: (§1) FIG. 2A-2B—Investigation of the EMT signature and drug sensitivity data. FIG. 2A illustrates the top and bottom correlations between the PRISM compound AUCs (measure of drug sensitivity with a higher value indicating resistance) across three independent EMT down (FIG. 2A) and up (FIG. 2A continued) signatures (Byers, Groger, and Taube). FIG. 2B illustrates the top and bottom correlations between the CTD^2 drug testing cohort compound AUCs with the down (FIG. 2B) and up (FIG. 2B continued) EMT signatures (Byers, Groger, and Taube).
(§2) Applicants analyzed correlations between the EMT signatures and drug sensitivities (FIG. 2).
(§3) Data Curation. All analyses were performed using publicly available data downloaded from the Dependency Map web portal, corresponding to the 22Q2 release. Drug testing data was from the 19Q4 release of PRISM and the most recent release (2015) of CTD ([…]). EMT gene sets were taken from the supplementals of the Byers (2013), Groger (2012), and Taube (2010) EMT related publications. Gene sets were broken down into up (mesenchymal) and down (epithelial) sub-gene sets. If up or down is not labeled in a figure, the composite gene set (union of the up and down lists) was used for scoring. […]
(§4) Computational Methods. […] EMT scores were generated using the GSVA package (v1.38.2) and Pearson correlations were calculated using the base cor function. […]

[14] = tested on: tumor cells having a mesenchymal state; experiment: EMT signature and drug sensitivity data (PRISM and CTD^2, FIG. 2); conditions: mesenchymal vs epithelial state
Procedure: Data Curation. All analyses were performed using publicly available data downloaded from the Dependency Map web portal, corresponding to the 22Q2 release. Drug testing data was from the 19Q4 release of PRISM and the most recent release (2015) of CTD (Gröger, C. J., et al., 2012). EMT gene sets were taken from the supplementals of the Byers (2013), Groger (2012), and Taube (2010) EMT related publications. Gene sets were broken down into up (mesenchymal) and down (epithelial) sub-gene sets. If up or down is not labeled in a figure, the composite gene set (union of the up and down lists) was used for scoring. Only carcinoma coded cell lines were used in analyses. These carcinoma lines were then subset further, when indicated, based on KRAS mutation or pancreas lineage.
Computational Methods. Analyses were performed using the statistical programming language R (v4.0.3, macOS 12.5.1, platform: x86_64-apple-darwin17.0 (64-bit)). EMT scores were generated using the GSVA package (v1.38.2) and Pearson correlations were calculated using the base cor function. All plots were generated using ggplot2 (v3.3.6). Data manipulation was performed using the dplyr (v1.0.8) and reshape2 (v.1.4.4) packages.

[15] = tested on: KP4, Panc1, Miapaca2 and 8988T (mesenchymal) vs Panc0403, Panc0504 and 8988S (epithelial) cancer cell lines; experiment: Cell growth by cell-titer-glo assay, mesenchymal vs epithelial cancer cell lines; assay type: cell-based; conditions: FIG. 8
Procedure: Validation studies were performed for two mesenchymal selective dependencies.

[16] = tested on: Survivin promoter; conditions: HeLa-SURP-luc and CHO-SV40-luc cells; read-out: IC50, inhibition of Survivin promoter activity; cited from earlier work
[17] = tested on: SV40 promoter; conditions: cited from earlier work
[18] = tested on: carcinoma cell lines; experiment: Correlation of EMT signatures with PRISM compound AUCs; conditions: PRISM drug testing cohort
Excerpt: as §1, §2, §3, §4

[19] = tested on: neutrophil margination; conditions: in vivo; read-out: IC50, neutrophil margination induced by IL-8; cited from earlier work
[20] = tested on: neutrophil chemotaxis; conditions: in vitro; read-out: IC50, neutrophil chemotaxis in response to IL-8; cited from earlier work
[21] = tested on: various cancer cell lines; conditions: read-out: IC50, apoptosis induction; cited from earlier work
[22] = tested on: normal human fibroblasts; conditions: read-out: IC50, apoptosis induction; cited from earlier work

For `CC[C@H]1/C=C/C=C/C[C@@H](C)[C@H](O)[C@@](C)(O)C(=O)[C@@H](C)[C@H](O)[C@@H](C)C(=O)[C@@H](C)[C@H](O)[C@@H](C)/C=C/C(=O)O[C@@H]2[C@H](C)[C@H](CC1)O[C@]1(CC[C@H](C)[C@H](C[C@@H](C)O)O1)[C@H]2C` [Oligomycin A, (1R,4E,5′S,6S,6′S,7R,8S,10R,11R,12S,14R,15S,16R,18E,20E,22R,25S,27R,28S,29R)-22-ethyl-7,11,14,15-tetrahydroxy-6′-[(2R)-2-hydroxypropyl]-5′,6,8,10,12,14,16,28,29-nonamethyl-3′,4′,5′,6′-tetrahydro-3H,9H,13H-spiro[2,26-dioxabicyclo[23.3.1]nonacosa-4,18,20-triene-27,2′-pyran]-3,9,13-trione], the GI50 [1] is listed as 270 nM and the “solubility in water and other biocompatible solvents” value [2] is listed as “poor solubility”.
In the case of `O=C(CCc1ccc(O)cc1)c1c(O)cc(O)cc1O` [Phloretin, 3-(4-hydroxyphenyl)-1-(2,4,6-trihydroxyphenyl)propan-1-one], the Ki [3] is listed as 86000 nM, the IC50 [4] is listed as 14000 nM and the IC50 [5] is listed as 28000 nM.
For `CN(C)C(=O)n1nnnc1Cc1ccc(-c2ccccc2)cc1` [LY2183240, N,N-dimethyl-5-[(4-biphenyl)methyl]tetrazole-1-carboxamide], the IC50 ([6]; read-out: IC50, anandamide uptake) is listed as 270000 nM, the Ki ([6]; read-out: Ki, anandamide uptake) is listed as 540000 nM and the “ED50, increase of anandamide levels” value [7] is listed as 1.37 mg/kg.
For `CC(C)c1ccc(Cn2ccc3c4c(N)nc(NC5CC5)nc4ccc32)cc1` [SCH 79797, 3-N-cyclopropyl-7-[(4-propan-2-ylphenyl)methyl]pyrrolo[3,2-f]quinazoline-1,3-diamine], the “activity against PAR2” value [8] is given as “no activity”, the IC50 ([9]; inducer haTRAP, read-out: IC50, platelet aggregation induced by haTRAP) is given as 300 nM and the IC50 ([9]; inducer α-thrombin, read-out: IC50, platelet aggregation induced by α-thrombin) is given as 3000 nM. For the same compound, the IC50 [10] was 70 nM and the “activity against PAR4” value [11] was “no activity”.
In the case of `CC(C)(C)c1ccc(S(=O)(=O)NCc2ccc(C(=O)Nc3cccnc3)cc2)cc1` [STF-31, 4-[[[[4-(1,1-dimethylethyl)phenyl]sulfonyl]amino]methyl]-N-3-pyridinyl-benzamide], the IC50 [12] is listed as roughly 1000 nM.
In the case of `O=C(Nc1ccc([N+](=O)[O-])cc1Cl)c1cc(Cl)ccc1O` [niclosamide, 5-chloro-N-(2-chloro-4-nitrophenyl)-2-hydroxybenzamide], the “correlation of compound AUC with composite EMT signatures” value [13] is reported as “top positively correlated compound” and the “selective efficacy / lethality in the mesenchymal cell state” value [14] is reported as “selective efficacy in mesenchymal cancer cells”.
In the case of `COCCn1c2c([n+](Cc3cnccn3)c1C)C(=O)c1ccccc1C2=O` [YM-155, 1-(2-methoxyethyl)-2-methyl-3-(pyrazin-2-ylmethyl)benzo[f]benzimidazol-3-ium-4,9-dione;bromide], the “selectivity of growth inhibition, mesenchymal vs epithelial cancer cells” value [15] is listed as “selective for inhibiting growth of mesenchymal cancer cells; also recorded: selectively targeted cancer cells that have undergone an epithelial-to-mesenchymal transition”, the IC50 [16] is listed as 0.54 nM and the “selective efficacy / lethality in the mesenchymal cell state” value [14] is listed as “potent selectivity against the mesenchymal cell state”. The “inhibition of SV40 promoter activity” value [17] was “does not significantly inhibit” and the “correlation of compound AUC with composite EMT signatures” value [18] was “top positively correlated compound”.
In the case of `O=C(Nc1ccc([N+](=O)[O-])cc1O)Nc1ccccc1Br` [SB 225002, 1-(2-bromophenyl)-3-(2-hydroxy-4-nitrophenyl)urea], the IC50 [19] is listed as 30 nM and the IC50 [20] is listed as 20 nM.
For `OCCNCCCOc1cccc(Cl)c1Cl` [2,3-DCPE, 2-[3-(2,3-dichlorophenoxy)propylamino]ethanol;hydrochloride], the IC50 [21] is given as 890 to 2690 nM and the IC50 [22] is given as 12600 nM.
